Source: US12410174B1, “Small molecular inhibitors of sting signaling compositions and methods of use” (TYERELL IMMUNOTHERAPEUTICS INC, priority 2020, dated 2025)
Entries after “also recorded” stand apart in the source; their conditions may differ.

Tests used:
STING signaling [1] = experiment: Luciferase live cell assay, type I IFN promoter in hTERT-pIFNβ-Glu cells after ISD transfection; type: cell-based, human; details: for criteria to inhibit STING dependent signaling (type I IFN promoter in human cells): test of the 25 novel analogs; for inhibitory activity of the type I IFN promoter (luciferase induction): hTERT-pIFNβ-Glu cells, 50 μM or 25 μM, in response to ISD
Procedure: Inhibition of IFNβ expression was measured by Luciferase induction at 24 hours after transfection of ISD, Mock is shown (210), ISD treatment only (220) was used as a control, according to an embodiment of the invention;
Example 1: Identification of small molecule antagonists of STING. In the presence of cytosolic DNA species, STING becomes activated to drive the transcription of cytokines such as type I IFN. Compounds binding to STING via TSA were subsequently examined for their ability to prevent cytosolic DNA species from activating the type I interferon (IFN) promoter, using a live cell assay. This assay comprised immortalized human fibroblasts that were stably transfected with the type I IFN promoter driving luciferase as well as the CMV promoter driving SEAP (hTERT-pIFNβ-Glu). The live cell assay has previously been disclosed in PCT/JS2019/025380 entitled IFN-βETA REPORTER SYSTEM FOR IMMORTALIZED PRIMARY CELLS inventor Glen N. Barber, which was filed Apr. 2, 2018 and published as WO2019195285, and which is herein incorporated by reference in its entirety and for all purposes. The ability of the small molecules to prevent activation of the type I IFN promoter and the transcription of luciferase, but not SEAP in response to cytosolic DNA species was assessed. The activation of STING, typically by CDNs, in turn activates the transcription factors NF-κB and IRF3, both of which are required to induce the transcriptional stimulation of the Type I IFN promoter, but not the CMV promoter as IRF3 and NF-kB transcription factor binding sites are not contained in the CMV promoter. The assay identified the small molecule Compound Y1 in the first screen (HTS), where the level of luciferase was not able to activate the type I IFN promoter or induce the expression of luciferase (see Table I).
Example 4: hTERT-BJ1 Telomerase Fibroblasts (hTERT) were originally purchased from Clontech and were cultured in 4:1 ratio of DMEM:Medium 199 supplement with 10% FBS, 4 mM L-Glutamine and 1 mM sodium pyruvate at 37° C. in a 5% CO2-humidified atmosphere. hTERT-BJ1 Telomerase Fibroblasts stably expressing the luciferase gene under the control of the interferon-beta promoter and SEAP gene under control of the CMV promoter) (hTERT-pIFNβ-Glu) were generated by the Barber laboratory.
Example 7: Luciferase assay: hTERT-BJ1 Telomerase Fibroblasts stably expressing the luciferase gene under the control of the interferon-beta promoter and SEAP gene under control of the CMV promoter) (hTERT-pIFNβ-Glu) were generated by the Barber laboratory. Luciferase assay was performed using Secrete-Pair Dual Luminescence Assay Kit from GeneCopoeia following the manufacturer's protocol.

STING signaling [2] = experiment: qPCR of IFNβ1 / Cxcl10 in normal hTERT cells after ISD transfection; type: cell-based, human; details: normal hTERT cells stimulated with ISD; 50 μM, 25 μM or 5 μM
Procedure: (§1) Example 11: qPCR total RNA were reverse-transcribed using M-MLV Reverse Transcriptase (Promega). Real-time PCR was performed using Taqman Gene Expression Assay (Applied Biosystems) for innate immune genes and inflammatory cytokines.

STING signaling [3] = experiment: Confocal analysis of STING trafficking and IRF3 translocation in hTERT cells; type: cell-based, human; details: 6 hours after ISD transfection
Procedure: FIG. 2E are photographs showing confocal analysis of STING trafficking using anti-Sting performed at 6 hours after ISD transfection with Y1+220/without 220, Mock is shown (210), ISD treatment only (220) was used as control, treatment same as in FIG. 2A, according to an embodiment of the invention;
Example 10: Immunofluorescence Microscopy: Cells were cultured and treated in their appropriate media on Lab-Tek II chamber slides. Cell were fixed with 4% paraformaldehyde for 15 minutes in at 37° C. and permeabilized with 0.05% Triton X-100 for 5 minutes at room temperature. Immunostaining was performed with rabbit-anti-STING polyclonal, rabbit-anti-IRF3 (Santa Cruz Biotechnology) or rabbit-anti-p65 (Cell Signaling) followed by fluorescence conjugated secondary antibodies (FITC-goat-anti-rabbit) (Invitrogen).

STING signaling [4] = experiment: Western blot of STING, TBK1 and IRF3 phosphorylation in MEF cells; type: cell-based, murine; details: cytosolic DNA
Procedure: Example 8: Immunoblot analysis: Equal amounts of proteins were resolved on sodium dodecyl sulfate (SDS)-Polyacrylamide gels and then transferred to polyvinylidene fluoride (PVDF) membranes (Millipore). After blocking with 5% Blocking Reagent, membranes were incubated with various primary antibodies (and appropriate secondary antibodies). The image was resolved using an enhanced chemiluminescence system ECL (Thermo Scientific) and detected by autoradiography (Kodak). Antibodies: rabbit polyclonal antibody against STING was developed in our laboratory as described previously in Ishikawa et al, 2008; other antibodies were obtained from following sources: β-actin (Sigma Aldrich), p-IRF3 (Cell Signaling), IRF3 (Santa Cruz Biotechnology), p-p65 (Cell Signaling), p65 (Cell Signaling), p-TBK1 (Cell Signaling), TBK1 (Abcam), cGAS (Cell Signaling).

STING signaling [5] = experiment: qPCR of Cxcl10 / Cxcl5 in MEF cells after ISD transfection; type: cell-based, murine
Procedure: MEFs were obtained from E13.5 embryos by a standard procedure. Bone Marrow Derived Macro-phages (BMDM) were isolated from hind-limb femurs of 8-10 weeks old WT and Trex1 KO (TKO) mice. The hematopoietic cells from the bone marrow were cultured in complete DMEM (Invitrogen) including 10 ng/ml of Mouse Recombinant Colony-Stimulating Factor (M-CSF, R&D Systems) for 10 to 14 days.
as §1

TREX1-deficient mice = experiment: Treatment of TREX1 knockout (TKO) mice: survival and heart histopathology; type: in vivo, mouse
Procedure: Example 12: Mouse Treatment: Trex1 Hetero knockout mice (Trex1^+/−) were generated by crossing the hetero mice. Mouse genotypes from tail biopsies were determined using Real Time PCR with specific probes designed for each gene by commercial vendor (Transnetyx). Trex1 KO (TKO) mice (4-5 weeks old) were intraperitoneally injected with 25 μg Z811 per mouse in 200 μL 1% DMSO in PBS. The mice were injected three times a week for 5 months. The survival rates were evaluated.
Example 13: Histopathology. Mice are sacrificed and the heart tissues were fixed in 10% formalin for 48 hours.

In the case of `COCCn1c(NC(=O)c2ccccc2Cl)c(C#N)c2nc3ccccc3nc21` [Compound Y3, 2-chloro-N-[3-cyano-1-(2-methoxyethyl)-1H-pyrrolo [2,3-ß]iquinoxalin-2-yl] benzamide], the “criteria to inhibit STING dependent signaling (type I IFN promoter in human cells)” value (STING signaling [1]) is reported as “found to meet the criteria to inhibit STING dependent signaling; also recorded: found to meet the criteria to inhibit STING dependent signaling and showed the most effective inhibitory activity”.

With `N#Cc1c(NC(=O)c2cccc(F)c2Cl)n(CCc2ccccc2)c2nc3ccccc3nc12` [Compound Y5, 2-chloro-N-[3-cyano-1-(2-phenylethyl)-1H-pyrrolo [2,3-b]quinoxalin-2-yl]-3-floorobenzamide] the “inhibitory activity of the type I IFN promoter (luciferase induction)” value (shortened to “inhibitory activity”) (STING signaling [1]) was “showed robust inhibitory activity of the type I IFN promoter”, the “criteria to inhibit STING dependent signaling (type I IFN promoter in human cells)” value (STING signaling [1]) was “found to meet the criteria to inhibit STING dependent signaling; also recorded: found to meet the criteria to inhibit STING dependent signaling and showed the most effective inhibitory activity” and the “production of STING-inducible cytokine Cxcl10 (qPCR)” value (STING signaling [2]) was “robustly inhibited”.

In the case of `Cc1ccc(Cl)c(C(=O)Nc2c(C#N)c3nc4ccccc4nc3n2CCc2ccccc2)c1` [Compound Y4, 2-chloro-N-[3-cyano-1-(2-phenylethyl)-1H-pyrrolo [2,3-b]quinoxalin-2-yl]-5-methylbenzamide], the “IRF3 translocation (confocal analysis)” value (STING signaling [3]) is reported as “reproducibly prevented STING trafficking and IRF3 phosphorylation”, the “STING trafficking (confocal analysis)” value (STING signaling [3]) is reported as “reproducibly prevented STING trafficking and IRF3 phosphorylation” and the “phosphorylation of TBK1, IRF3 and STING (Western blot)” value (“phosphorylation of TBK1” below) (STING signaling [4]) is reported as “can prevent the phosphorylation of TBK1 and IRF3 as well as STING phosphorylation”. For the same molecule, the “inhibitory activity” value (STING signaling [1]) was “showed robust inhibitory activity of the type I IFN promoter”, the “criteria to inhibit STING dependent signaling (type I IFN promoter in human cells)” value (STING signaling [1]) was “found to meet the criteria to inhibit STING dependent signaling; also recorded: found to meet the criteria to inhibit STING dependent signaling and showed the most effective inhibitory activity” and the “Cxcl10 production in response to ISD (qPCR)” value (“Cxcl10 production in response” for short) (STING signaling [5]) was “impede the production of Cxcl10”. For the same molecule, the “production of STING-inducible cytokine Cxcl10 (qPCR)” value (STING signaling [2]) was “robustly inhibited”.

`N#Cc1c(NC(=O)c2ccccc2Cl)n(CCc2cccc(F)c2)c2nc3ccccc3nc12` [Compound Y7, 2-chloro-N-{3-cyano-1-[2-(3-fluorophenyl)ethyl]-1H-pyrrolo[2,3-b]quinoxalin-2-yl}benzamide] was tested, and the “inhibitory activity” value (STING signaling [1]) was “showed robust inhibitory activity of the type I IFN promoter”, the “criteria to inhibit STING dependent signaling (type I IFN promoter in human cells)” value (STING signaling [1]) was “found to meet the criteria to inhibit STING dependent signaling; also recorded: found to meet the criteria to inhibit STING dependent signaling and showed the most effective inhibitory activity” and the “production of STING-inducible cytokine Cxcl10 (qPCR)” value (STING signaling [2]) was “robustly inhibited”.

In the case of `N#Cc1c(NC(=O)c2cccc(Cl)c2Cl)n(CCc2ccccc2)c2nc3ccccc3nc12` [Compound Y8, 2,3-dichloro-N-[3-cyano-1-(2-phenylethyl)-1H-pyrrolo[2,3-b]quinoxalin-2-yl]benzamide], the “IRF3 translocation (confocal analysis)” value (STING signaling [3]) is reported as “reproducibly prevented STING trafficking and IRF3 phosphorylation”, the “STING trafficking (confocal analysis)” value (STING signaling [3]) is reported as “reproducibly prevented STING trafficking and IRF3 phosphorylation” and the “phosphorylation of TBK1” value (STING signaling [4]) is reported as “can prevent the phosphorylation of TBK1 and IRF3 as well as STING phosphorylation”. The “inhibitory activity” value (STING signaling [1]) was “showed robust inhibitory activity of the type I IFN promoter”, the “criteria to inhibit STING dependent signaling (type I IFN promoter in human cells)” value (STING signaling [1]) was “found to meet the criteria to inhibit STING dependent signaling; also recorded: found to meet the criteria to inhibit STING dependent signaling and showed the most effective inhibitory activity” and the “Cxcl10 production in response” value (STING signaling [5]) was “impede the production of Cxcl10”. For the same molecule, the “production of STING-inducible cytokine Cxcl10 (qPCR)” value (STING signaling [2]) was “robustly inhibited”.

In the case of `Cc1cccc(C(=O)Nc2c(C#N)c3nc4ccccc4nc3n2CCc2ccccc2)c1Cl` [Compound Y9, 2-chloro-N-[3-cyano-1-(2-phenylethyl)-1H-pyrrolo [2,3-β]quinoxalin-2-yl]-3-methylbenzamide], the “IRF3 translocation (confocal analysis)” value (STING signaling [3]) is reported as “reproducibly prevented STING trafficking and IRF3 phosphorylation”, the “STING trafficking (confocal analysis)” value (STING signaling [3]) is reported as “reproducibly prevented STING trafficking and IRF3 phosphorylation” and the “inflammation in the heart (H&E staining)” value (TREX1-deficient mice) is reported as “Less inflammation in the heart”. The “survival of TREX1-deficient mice” value (TREX1-deficient mice; intraperitoneal, 25 μg/mouse, 5 months, compared to mock treated) was “extend the survival of TREX1-deficient mice”, the “phosphorylation of TBK1” value (STING signaling [4]) was “can prevent the phosphorylation of TBK1 and IRF3 as well as STING phosphorylation” and the “inhibitory activity” value (STING signaling [1]) was “showed robust inhibitory activity of the type I IFN promoter”. For the same molecule, the “criteria to inhibit STING dependent signaling (type I IFN promoter in human cells)” value (STING signaling [1]) was “found to meet the criteria to inhibit STING dependent signaling; also recorded: found to meet the criteria to inhibit STING dependent signaling and showed the most effective inhibitory activity”, the “Cxcl10 production in response” value (STING signaling [5]) was “impede the production of Cxcl10” and the “production of STING-inducible cytokine Cxcl10 (qPCR)” value (STING signaling [2]) was “robustly inhibited”.

In the case of `N#Cc1c(NC(=O)c2c(F)cccc2Cl)n(CCc2ccccc2)c2nc3ccccc3nc12` [Compound Y6, 2-chloro-N-[3-cyano-1-(2-phenylethyl)-1H-pyrrolo [2,3-b]quinoxalin-2-yl]-6-fluorobenzamide], the “inhibitory activity” value (STING signaling [1]) is reported as “showed robust inhibitory activity of the type I IFN promoter”, the “criteria to inhibit STING dependent signaling (type I IFN promoter in human cells)” value (STING signaling [1]) is reported as “found to meet the criteria to inhibit STING dependent signaling; also recorded: found to meet the criteria to inhibit STING dependent signaling and showed the most effective inhibitory activity” and the “production of STING-inducible cytokine Cxcl10 (qPCR)” value (STING signaling [2]) is reported as “robustly inhibited”.

With `N#Cc1c(NC(=O)c2ccccc2Cl)n(CCOc2ccccc2)c2nc3ccccc3nc12` [Compound Y2, 2-chloro-N-[3-cyano-1-(2-phenoxyethyl)-1H-pyrrolo [2,3-b]quinoxalin-2-yl] benzamide] the “criteria to inhibit STING dependent signaling (type I IFN promoter in human cells)” value (STING signaling [1]) was “found to meet the criteria to inhibit STING dependent signaling; also recorded: found to meet the criteria to inhibit STING dependent signaling and showed the most effective inhibitory activity”.
